Measurements published in ChEMBL document CHEMBL3991601, “The target landscape of clinical kinase drugs” (Science, 2017).
Active and inactive are the calls of the source.

Legend:
[1] = biological target: T1, Eukaryotic translation initiation factor 5B (Homo sapiens, UniProt O60841)
T1 sequence (O60841 whole entry): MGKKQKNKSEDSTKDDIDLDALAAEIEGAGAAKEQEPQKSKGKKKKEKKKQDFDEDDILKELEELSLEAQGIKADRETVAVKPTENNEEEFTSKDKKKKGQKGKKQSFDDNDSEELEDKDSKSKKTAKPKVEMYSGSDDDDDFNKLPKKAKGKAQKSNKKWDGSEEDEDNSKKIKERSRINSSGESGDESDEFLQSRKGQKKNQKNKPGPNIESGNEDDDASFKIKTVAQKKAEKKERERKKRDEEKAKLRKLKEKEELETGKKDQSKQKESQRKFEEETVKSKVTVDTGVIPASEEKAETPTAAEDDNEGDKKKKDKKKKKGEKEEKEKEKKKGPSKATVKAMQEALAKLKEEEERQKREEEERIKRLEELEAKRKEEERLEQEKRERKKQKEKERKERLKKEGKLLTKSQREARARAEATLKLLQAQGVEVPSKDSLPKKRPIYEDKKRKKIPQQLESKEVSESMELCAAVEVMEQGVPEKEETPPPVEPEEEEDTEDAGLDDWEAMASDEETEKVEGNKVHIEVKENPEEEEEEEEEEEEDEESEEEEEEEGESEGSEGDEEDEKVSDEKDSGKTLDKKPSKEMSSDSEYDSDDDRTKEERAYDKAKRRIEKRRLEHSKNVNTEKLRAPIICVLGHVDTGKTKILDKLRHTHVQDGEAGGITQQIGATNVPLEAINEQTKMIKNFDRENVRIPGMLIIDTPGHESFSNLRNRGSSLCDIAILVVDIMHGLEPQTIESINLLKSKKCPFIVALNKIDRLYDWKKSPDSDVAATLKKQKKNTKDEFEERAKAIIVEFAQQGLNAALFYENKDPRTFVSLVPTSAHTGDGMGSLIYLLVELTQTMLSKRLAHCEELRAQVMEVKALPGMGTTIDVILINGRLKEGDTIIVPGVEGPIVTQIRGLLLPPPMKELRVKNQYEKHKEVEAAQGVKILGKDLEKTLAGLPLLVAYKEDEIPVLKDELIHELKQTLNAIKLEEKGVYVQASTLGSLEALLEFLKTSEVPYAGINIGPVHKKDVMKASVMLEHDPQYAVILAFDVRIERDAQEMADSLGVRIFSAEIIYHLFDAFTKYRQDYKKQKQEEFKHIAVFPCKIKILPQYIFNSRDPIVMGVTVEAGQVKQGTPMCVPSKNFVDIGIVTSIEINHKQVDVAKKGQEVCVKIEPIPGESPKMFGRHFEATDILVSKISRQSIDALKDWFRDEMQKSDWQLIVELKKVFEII

[2] = biological target: T2, Inhibitor of nuclear factor kappa-B kinase subunit epsilon (Homo sapiens, UniProt Q14164)
T2 sequence (Q14164 whole entry): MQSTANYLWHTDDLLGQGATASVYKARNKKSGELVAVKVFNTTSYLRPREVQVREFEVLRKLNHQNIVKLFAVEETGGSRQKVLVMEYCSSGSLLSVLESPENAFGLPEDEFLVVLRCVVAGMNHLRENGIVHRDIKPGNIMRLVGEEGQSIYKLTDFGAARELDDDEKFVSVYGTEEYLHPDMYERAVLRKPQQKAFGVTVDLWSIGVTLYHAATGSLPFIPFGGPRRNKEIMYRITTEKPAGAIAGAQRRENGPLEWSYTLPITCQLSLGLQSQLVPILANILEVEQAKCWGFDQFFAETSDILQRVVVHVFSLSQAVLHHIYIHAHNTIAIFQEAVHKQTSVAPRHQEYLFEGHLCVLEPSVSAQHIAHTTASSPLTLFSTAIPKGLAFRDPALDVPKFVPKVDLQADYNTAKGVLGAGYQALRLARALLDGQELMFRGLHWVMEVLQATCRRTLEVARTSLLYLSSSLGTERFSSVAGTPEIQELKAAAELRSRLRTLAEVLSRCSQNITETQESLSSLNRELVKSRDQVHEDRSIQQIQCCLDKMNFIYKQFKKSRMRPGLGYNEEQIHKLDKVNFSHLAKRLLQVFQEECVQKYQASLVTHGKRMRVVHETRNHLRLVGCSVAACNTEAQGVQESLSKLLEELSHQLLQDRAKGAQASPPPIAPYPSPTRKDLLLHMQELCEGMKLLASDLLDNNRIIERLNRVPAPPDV

Adenosine kinase = Adenosine kinase (Homo sapiens, UniProt P55263)
Chain of Adenosine kinase (P55263 whole entry): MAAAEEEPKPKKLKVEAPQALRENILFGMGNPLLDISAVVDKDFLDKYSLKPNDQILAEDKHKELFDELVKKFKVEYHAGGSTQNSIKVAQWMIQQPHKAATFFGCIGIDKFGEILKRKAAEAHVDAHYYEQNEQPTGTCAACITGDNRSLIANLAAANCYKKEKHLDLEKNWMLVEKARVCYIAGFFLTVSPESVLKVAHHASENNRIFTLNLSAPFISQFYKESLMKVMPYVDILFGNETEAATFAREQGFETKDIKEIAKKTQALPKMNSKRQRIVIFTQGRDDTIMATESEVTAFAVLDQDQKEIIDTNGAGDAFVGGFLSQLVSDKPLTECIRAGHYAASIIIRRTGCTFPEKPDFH

ADP/ATP translocase 3 = biological target: T3, ADP/ATP translocase 3 (Homo sapiens, UniProt P12236)
T3 sequence (P12236 whole entry): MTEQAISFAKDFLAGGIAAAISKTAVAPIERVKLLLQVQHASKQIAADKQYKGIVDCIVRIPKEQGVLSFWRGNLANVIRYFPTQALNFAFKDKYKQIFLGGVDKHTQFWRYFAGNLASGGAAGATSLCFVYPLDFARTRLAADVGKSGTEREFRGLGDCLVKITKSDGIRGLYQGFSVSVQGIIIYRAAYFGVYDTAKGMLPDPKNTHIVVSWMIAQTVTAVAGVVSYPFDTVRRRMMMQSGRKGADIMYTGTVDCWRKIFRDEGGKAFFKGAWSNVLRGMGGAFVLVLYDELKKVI

Ephrin type-A receptor 4 = Ephrin type-A receptor 4 (Homo sapiens, UniProt P54764)
[3] = biological target: Casein kinase I isoform gamma-1 (Homo sapiens, UniProt Q9HCP0)
Chain of Casein kinase I isoform gamma-1 (Q9HCP0 whole entry, canonical isoform): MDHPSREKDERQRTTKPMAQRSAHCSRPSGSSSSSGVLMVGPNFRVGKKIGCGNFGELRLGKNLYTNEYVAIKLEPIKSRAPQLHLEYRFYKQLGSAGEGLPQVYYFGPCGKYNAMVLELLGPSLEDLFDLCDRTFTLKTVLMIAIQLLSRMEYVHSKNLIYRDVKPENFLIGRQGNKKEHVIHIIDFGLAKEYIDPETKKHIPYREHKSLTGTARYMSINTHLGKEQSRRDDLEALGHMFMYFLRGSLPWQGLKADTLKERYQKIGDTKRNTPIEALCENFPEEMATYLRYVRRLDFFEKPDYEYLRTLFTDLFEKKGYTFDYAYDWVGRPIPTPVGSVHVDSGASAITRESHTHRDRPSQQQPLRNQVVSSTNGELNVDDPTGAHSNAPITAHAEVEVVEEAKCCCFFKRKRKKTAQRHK

[4] = biological target: Myosin light chain kinase, smooth muscle (Homo sapiens, UniProt Q15746)
Chain of Myosin light chain kinase, smooth muscle (Q15746 whole entry): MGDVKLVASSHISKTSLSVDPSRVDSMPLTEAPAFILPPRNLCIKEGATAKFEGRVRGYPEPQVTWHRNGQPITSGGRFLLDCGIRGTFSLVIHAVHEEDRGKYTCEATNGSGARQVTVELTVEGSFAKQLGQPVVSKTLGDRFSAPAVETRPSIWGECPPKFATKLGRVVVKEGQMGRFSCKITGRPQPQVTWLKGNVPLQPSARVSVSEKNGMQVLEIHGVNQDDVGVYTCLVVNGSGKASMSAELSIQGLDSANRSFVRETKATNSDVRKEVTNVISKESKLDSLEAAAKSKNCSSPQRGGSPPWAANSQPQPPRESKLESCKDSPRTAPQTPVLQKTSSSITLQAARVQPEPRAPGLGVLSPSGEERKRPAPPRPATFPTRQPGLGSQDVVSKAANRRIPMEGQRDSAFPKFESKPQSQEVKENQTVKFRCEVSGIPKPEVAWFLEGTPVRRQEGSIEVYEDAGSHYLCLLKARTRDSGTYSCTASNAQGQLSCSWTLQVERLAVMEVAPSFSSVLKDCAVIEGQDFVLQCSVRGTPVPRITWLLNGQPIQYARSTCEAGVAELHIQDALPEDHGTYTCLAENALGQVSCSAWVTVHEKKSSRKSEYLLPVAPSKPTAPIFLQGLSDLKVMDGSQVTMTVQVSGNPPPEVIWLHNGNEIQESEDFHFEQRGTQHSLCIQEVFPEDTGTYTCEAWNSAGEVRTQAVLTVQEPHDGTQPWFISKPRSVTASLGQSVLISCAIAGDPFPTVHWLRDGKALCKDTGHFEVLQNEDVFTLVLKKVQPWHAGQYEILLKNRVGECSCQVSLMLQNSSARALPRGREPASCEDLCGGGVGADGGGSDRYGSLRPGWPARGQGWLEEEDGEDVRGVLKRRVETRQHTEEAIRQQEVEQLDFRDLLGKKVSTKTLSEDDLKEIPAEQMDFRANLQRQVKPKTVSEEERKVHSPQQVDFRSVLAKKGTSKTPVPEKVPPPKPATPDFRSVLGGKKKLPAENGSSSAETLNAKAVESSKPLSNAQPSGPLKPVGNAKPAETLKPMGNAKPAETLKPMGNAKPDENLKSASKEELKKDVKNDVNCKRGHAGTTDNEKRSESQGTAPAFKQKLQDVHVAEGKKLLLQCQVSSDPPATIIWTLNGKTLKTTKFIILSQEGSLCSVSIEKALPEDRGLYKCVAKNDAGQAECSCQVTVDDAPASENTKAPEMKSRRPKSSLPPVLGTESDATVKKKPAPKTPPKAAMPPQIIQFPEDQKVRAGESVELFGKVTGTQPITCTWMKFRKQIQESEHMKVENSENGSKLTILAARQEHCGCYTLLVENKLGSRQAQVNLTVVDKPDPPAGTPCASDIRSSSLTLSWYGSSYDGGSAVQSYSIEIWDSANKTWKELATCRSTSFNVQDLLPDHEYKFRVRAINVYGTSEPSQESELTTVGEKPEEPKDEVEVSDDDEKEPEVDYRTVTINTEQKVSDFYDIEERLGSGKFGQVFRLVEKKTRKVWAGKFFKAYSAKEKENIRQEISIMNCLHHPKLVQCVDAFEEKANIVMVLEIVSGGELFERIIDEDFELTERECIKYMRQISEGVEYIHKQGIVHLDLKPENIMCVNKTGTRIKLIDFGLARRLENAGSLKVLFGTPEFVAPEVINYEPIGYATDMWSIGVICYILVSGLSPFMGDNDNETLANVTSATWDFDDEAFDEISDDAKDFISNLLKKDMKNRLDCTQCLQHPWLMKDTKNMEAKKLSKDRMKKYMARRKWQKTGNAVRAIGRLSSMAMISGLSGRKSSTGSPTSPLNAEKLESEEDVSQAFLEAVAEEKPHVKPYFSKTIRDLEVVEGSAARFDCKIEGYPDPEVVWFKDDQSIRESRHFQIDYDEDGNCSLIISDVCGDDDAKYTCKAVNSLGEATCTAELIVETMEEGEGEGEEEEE

[5] = biological target: Dual specificity mitogen-activated protein kinase kinase 1 (Homo sapiens, UniProt Q02750)
Chain of Dual specificity mitogen-activated protein kinase kinase 1 (Q02750 whole entry): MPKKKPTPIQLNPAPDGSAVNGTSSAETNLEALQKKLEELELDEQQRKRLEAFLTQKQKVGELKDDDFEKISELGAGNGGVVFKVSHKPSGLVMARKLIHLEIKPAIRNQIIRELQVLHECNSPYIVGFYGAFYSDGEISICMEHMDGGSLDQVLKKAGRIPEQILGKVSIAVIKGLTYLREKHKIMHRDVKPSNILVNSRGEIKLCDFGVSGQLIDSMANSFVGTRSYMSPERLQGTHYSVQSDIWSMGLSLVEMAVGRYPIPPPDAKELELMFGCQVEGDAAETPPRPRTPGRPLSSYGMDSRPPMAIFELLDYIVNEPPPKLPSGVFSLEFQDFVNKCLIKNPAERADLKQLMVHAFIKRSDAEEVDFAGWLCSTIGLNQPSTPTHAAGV

[6] = biological target: Serine/threonine-protein kinase 16 (Homo sapiens, UniProt O75716)
Chain of Serine/threonine-protein kinase 16 (O75716 whole entry): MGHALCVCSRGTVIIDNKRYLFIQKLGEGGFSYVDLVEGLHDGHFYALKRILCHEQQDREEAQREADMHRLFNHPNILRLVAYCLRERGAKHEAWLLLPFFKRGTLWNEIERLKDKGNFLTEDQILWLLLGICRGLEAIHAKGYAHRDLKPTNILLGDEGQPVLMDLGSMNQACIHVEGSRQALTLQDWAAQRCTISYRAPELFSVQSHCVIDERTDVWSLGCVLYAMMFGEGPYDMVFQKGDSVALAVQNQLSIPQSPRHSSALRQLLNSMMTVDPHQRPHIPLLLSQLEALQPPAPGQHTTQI

[7] = biological target: Atypical kinase COQ8A, mitochondrial (Homo sapiens, UniProt Q8NI60)
Chain of Atypical kinase COQ8A, mitochondrial (Q8NI60 whole entry): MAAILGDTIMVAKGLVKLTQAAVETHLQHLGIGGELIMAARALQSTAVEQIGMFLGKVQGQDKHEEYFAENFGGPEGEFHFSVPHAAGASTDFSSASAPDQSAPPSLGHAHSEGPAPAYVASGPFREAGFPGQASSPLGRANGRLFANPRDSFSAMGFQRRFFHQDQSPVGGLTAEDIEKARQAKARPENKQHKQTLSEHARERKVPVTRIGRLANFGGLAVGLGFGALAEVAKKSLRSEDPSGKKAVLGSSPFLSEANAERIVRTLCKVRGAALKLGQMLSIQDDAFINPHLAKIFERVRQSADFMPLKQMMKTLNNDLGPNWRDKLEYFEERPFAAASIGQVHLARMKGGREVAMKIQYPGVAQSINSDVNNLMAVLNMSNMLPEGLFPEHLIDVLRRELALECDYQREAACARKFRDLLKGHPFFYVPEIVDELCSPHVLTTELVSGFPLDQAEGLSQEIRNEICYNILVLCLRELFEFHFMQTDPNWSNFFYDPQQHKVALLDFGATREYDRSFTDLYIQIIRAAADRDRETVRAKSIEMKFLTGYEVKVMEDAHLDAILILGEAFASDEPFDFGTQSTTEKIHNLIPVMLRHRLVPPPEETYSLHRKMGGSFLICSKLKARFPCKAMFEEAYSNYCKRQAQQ

[8] = biological target: Ribosomal protein S6 kinase alpha-6 (Homo sapiens, UniProt Q9UK32)
[9] = biological target: Serine/threonine-protein kinase pim-1 (Homo sapiens, UniProt P11309)
Chain of Serine/threonine-protein kinase pim-1 (P11309 whole entry): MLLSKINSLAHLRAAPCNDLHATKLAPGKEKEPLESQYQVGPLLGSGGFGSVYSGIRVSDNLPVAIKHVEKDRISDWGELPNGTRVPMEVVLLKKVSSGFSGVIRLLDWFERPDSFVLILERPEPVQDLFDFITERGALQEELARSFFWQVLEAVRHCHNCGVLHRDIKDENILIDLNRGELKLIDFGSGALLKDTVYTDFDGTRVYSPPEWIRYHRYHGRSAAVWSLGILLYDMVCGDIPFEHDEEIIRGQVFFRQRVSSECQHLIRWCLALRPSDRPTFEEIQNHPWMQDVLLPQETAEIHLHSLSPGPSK

[10] = biological target: Bone morphogenetic protein receptor type-1A (Homo sapiens, UniProt P36894)
Chain of Bone morphogenetic protein receptor type-1A (P36894 whole entry): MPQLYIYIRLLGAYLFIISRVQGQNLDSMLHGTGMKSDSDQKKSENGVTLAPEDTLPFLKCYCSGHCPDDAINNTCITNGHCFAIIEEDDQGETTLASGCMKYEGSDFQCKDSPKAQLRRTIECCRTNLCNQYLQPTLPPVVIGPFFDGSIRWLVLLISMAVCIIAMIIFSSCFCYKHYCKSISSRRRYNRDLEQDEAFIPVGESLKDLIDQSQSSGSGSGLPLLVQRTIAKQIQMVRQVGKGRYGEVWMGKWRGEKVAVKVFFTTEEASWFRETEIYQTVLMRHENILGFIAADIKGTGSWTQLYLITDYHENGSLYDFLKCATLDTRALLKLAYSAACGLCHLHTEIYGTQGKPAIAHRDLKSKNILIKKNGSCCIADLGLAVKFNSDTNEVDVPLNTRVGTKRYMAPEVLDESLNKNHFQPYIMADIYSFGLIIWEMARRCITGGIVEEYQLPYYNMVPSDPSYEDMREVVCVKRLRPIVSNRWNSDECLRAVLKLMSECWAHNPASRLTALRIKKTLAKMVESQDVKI
Note: in the data inactive means no Kd found up to 30 µM.

SMILES: Cn1cc(-c2cnn3c(N)c(Br)c([C@@H]4CCCNC4)nc23)cn1 [SCH-900776]
- Kd [1]: > 30 µM (inactive)
- Kd [2]: > 30 µM (inactive)
- Kd (Adenosine kinase): > 30 µM (inactive)
- Kd (ADP/ATP translocase 3): > 30 µM (inactive)
- Kd (Ephrin type-A receptor 4): > 30 µM (inactive)
- Kd [3]: > 30 µM (inactive)
- Kd [4]: > 30 µM (inactive)
- Kd [5]: > 30 µM (inactive)
- Kd [6]: > 30 µM (inactive)
- Kd [7]: > 30 µM (inactive)
- Kd [8]: 1.27 µM (active)
- Kd [9]: 19.3 µM (active)
- Kd [10]: > 30 µM (inactive)

SMILES: CCn1c(C(=O)N(C2CC2)C2CC2)cc2c3c(ncn3C)c(Nc3cc(C)n(C)n3)nc21 [BMS-911543]
- Kd [1]: > 30 µM (inactive)
- Kd [2]: > 30 µM (inactive)
- Kd (Adenosine kinase): > 30 µM (inactive)
- Kd (ADP/ATP translocase 3): > 30 µM (inactive)
- Kd (Ephrin type-A receptor 4): > 30 µM (inactive)
- Kd [3]: > 30 µM (inactive)
- Kd [4]: > 30 µM (inactive)
- Kd [5]: > 30 µM (inactive)
- Kd [6]: > 30 µM (inactive)
- Kd [7]: > 30 µM (inactive)
- Kd [8]: > 30 µM (inactive)
- Kd [9]: > 30 µM (inactive)
- Kd [10]: > 30 µM (inactive)
